In US12202826B2, “N-pyridinyl acetamide derivatives as inhibitors of the Wnt signaling pathway” (Redx Pharma PLC, priority 2014, dated 2025) one finds IC50 data, which are given here for 66 molecules.

One assay relates to L-Wnt cells (murine Wnt-3a) / Leading Light Wnt Reporter Cells (luciferase under control of Wnt pathway response elements). Nature of the assay: Dual-Cell β-Catenin Reporter Assay. The conditions noted are these: category of IC50; luciferase signal reduced to 50% of DMSO control. It counts as cell-based, Mouse. Here is the method: Dual-Cell β-Catenin Reporter Assay
Mouse L cells transfected to constitutively produce biologically active murine Wnt-3a, referred to as L-Wnt cells, were purchased from the American Type Culture Collection, ATCC, Manassas, VA (ATCC). These cells were cultured in DMEM supplemented with 10% FCS (Gibco/Invitrogen, Carlsbad, CA), 1% geneticin and 1% sodium pyruvate (Sigma) at 37° C. with 5% CO2. The cells were seeded into 96 well plates and treated with serial dilutions of compound diluted to 0.1% DMSO concentration. After 24 hours, cell supernatants were transferred to a 96 well plate previously seeded with Leading Light® Wnt Reporter Cells, stably transfected with a luciferase gene under control of Wnt pathway response elements. After a further 24 hours, cells are treated with One-glo luciferase assay system (Promega, Madison, WI) and the luminescent signal read by envision. The IC50 of the compound is determined as the concentration that reduces the induced luciferase signal to 50% of the DMSO control.
The category “+” refers to compounds with an IC50 of >100 μM. The category “++” refers to compounds with an IC50 of 5 to 100 μM. The category “+++” refers to compounds with an IC50<5 μM.
Background: Reporter assays use an easily measured gene product as a stand-in for the process of interest.
As usually defined, the IC50 is the midpoint of a concentration-inhibition curve. Read a low IC50 as greater potency. In turn, `Cc1cc(-c2cnn(CC(=O)Nc3ccc(N4CCN(C(=O)OC(C)(C)C)CC4)cn3)c2)ccn1` [compound 8] showed a 50% inhibitory concentration (IC50) of 5 to 100 nM.
The molecule `O=C(Cn1cnc(-c2ccnc(C(F)(F)F)c2)c1)Nc1ccc(-c2cncnc2)nc1` [compound 11] gave an IC50 of more than 100 nM.
In turn, `O=C(Cn1cnc(-c2ccnc(C(F)(F)F)c2)c1)Nc1ccc(-c2cnccn2)nc1` [compound 13] came in with an IC50 of 5 to 100 nM.
Turning to `O=C(Cn1cc(-c2ccnc(C(F)(F)F)c2)cn1)Nc1ccc(-c2cnccn2)cn1` [compound 17], the IC50 is less than 5 nM.
In the case of `O=C(Cn1cc(-c2ccnc(C(F)F)c2)cn1)Nc1ccc(-c2cnccn2)cn1` [compound 21], the IC50 was less than 5 nM.
The molecule `O=C(Cc1cc(-c2ccnc(C(F)(F)F)c2)cs1)Nc1ccc(-c2cnccn2)cn1` [compound 23] yielded an IC50 of less than 5 nM.
Take `Cc1cc(-c2csc(CC(=O)Nc3ccc(-c4cnccn4)cn3)c2)ccn1` [compound 24]: the IC50 was less than 5 nM.
Consider `Cc1ncsc1-c1cnn(CC(=O)Nc2ccc(-c3cnccn3)cn2)c1` [compound 25], for which the IC50 lay within 5 to 100 nM.
In the case of `Cn1nccc1-c1cnn(CC(=O)Nc2ccc(-c3cnccn3)cn2)c1` [compound 26], the IC50 lay in the range of 5 to 100 nM.
Still for that read-out and setting: then `O=C(Cn1cc(-c2cnsc2)cn1)Nc1ccc(-c2cnccn2)cn1` [compound 27], with 5 to 100 nM; and `O=C(Cc1cc(C2=CCOCC2)cs1)Nc1ccc(-c2cnccn2)cn1` [compound 28], with 5 to 100 nM; and `Cc1ncc(-c2cnn(CC(=O)Nc3ccc(-c4cnccn4)cn3)c2)s1` [compound 29], with more than 100 nM.
For the molecule `O=C(Cn1cc(-c2ccncn2)cn1)Nc1ccc(-c2cnccn2)cn1` [compound 30], the IC50 was more than 100 nM.
The molecule `Cn1nccc1-c1csc(CC(=O)Nc2ccc(-c3cnccn3)cn2)c1` [compound 31] displayed an IC50 of 5 to 100 nM.
Consider `Cn1nccc1-c1cn(CC(=O)Nc2ccc(-c3cnccn3)cn2)cn1` [compound 32], for which the IC50 was more than 100 nM.
`O=C(Cn1cc(-c2cn[nH]c2)cn1)Nc1ccc(-c2cnccn2)cn1` [compound 33] returned an IC50 of more than 100 nM.
On the same count and under the same terms, then `O=C(Cn1cc(-c2ccnc(C(F)(F)F)c2)cn1)Nc1ccc(-c2cncnc2)cn1` [compound 34], with less than 5 nM.
As to `Cc1nn(CC(=O)Nc2ccc(-c3cncnc3)cn2)c(C)c1-c1ccnc(C(F)(F)F)c1` [compound 35], the IC50 is less than 5 nM.
Take `Cc1noc(C)c1-c1cnn(CC(=O)Nc2ccc(-c3cnccn3)cn2)c1` [compound 36]: the IC50 lay in the range of 5 to 100 nM.
`O=C(Cn1cc(-c2ccnc(C(F)(F)F)n2)cn1)Nc1ccc(-c2cnccn2)cn1` [compound 37]: the IC50 was less than 5 nM.
The molecule `Cc1nccc(-c2cnn(CC(=O)Nc3ccc(-c4cnccn4)cn3)c2)n1` [compound 38] registered an IC50 of 5 to 100 nM.
Regarding `Cc1cc(-c2cnn(CC(=O)Nc3ccc(-c4cnccn4)cn3)c2)ncn1` [compound 39], the IC50 is more than 100 nM.
For the molecule `Cc1nn(CC(=O)Nc2ccc(-c3cnccn3)cn2)c(C)c1C1CCOCC1` [compound 40], the IC50 was less than 5 nM.
In turn, `O=C(Cn1cc(-c2cc(C(F)(F)F)ncn2)cn1)Nc1ccc(-c2cnccn2)cn1` [compound 41] had an IC50 of 5 to 100 nM.
In turn, `O=C(Cn1cnc(C2=CCNCC2)c1)Nc1ccc(-c2cnccn2)cn1` [compound 42] displayed an IC50 of more than 100 nM.
As for `CC(C)n1nccc1-c1cnn(CC(=O)Nc2ccc(-c3cnccn3)cn2)c1` [compound 43], the IC50 is more than 100 nM.
`Cc1cc(-c2c(C)nn(CC(=O)Nc3ccc(-c4cnccn4)cn3)c2C)ccn1` [compound 44] registered an IC50 of less than 5 nM.
Molecule `O=C(Cn1cc(-c2ccnn2C2CCCC2)cn1)Nc1ccc(-c2cnccn2)cn1` [compound 45] returned an IC50 of more than 100 nM.
On to `Cc1nn(CC(=O)Nc2ccc(-c3cnccn3)cn2)c(C)c1C1=CCN(C(=O)OC(C)(C)C)CC1` [compound 46], for which the IC50 was 5 to 100 nM.
`Cc1nn(CC(=O)Nc2ccc(-c3cnccn3)cn2)c(C)c1-c1ccnn1C1CCCC1` [compound 47] came in with an IC50 of more than 100 nM.
Regarding `Cc1nn(CC(=O)Nc2ccc(-c3cnccn3)cn2)c(C)c1C1=CCOCC1` [compound 48], the IC50 is less than 5 nM.
The same measure, in the same setting: then `Cc1nn(CC(=O)Nc2ccc(C3=CCOCC3)cn2)c(C)c1-c1ccnc(C(F)(F)F)c1` [compound 49], with 5 to 100 nM.
The same measure, in the same setting: then `Cc1nn(CC(=O)Nc2ccc(-c3cnccn3)cn2)c(C)c1-c1ccnn1C` [compound 50], with 5 to 100 nM; and `Cc1cc(-c2c(C)nn(CC(=O)Nc3ccc(-c4cnccn4)cn3)c2C)cnn1` [compound 51], with 5 to 100 nM.
Still for that read-out and setting: then `Cc1nn(CC(=O)Nc2ccc(-c3cccnc3)cn2)c(C)c1-c1ccnc(C(F)(F)F)c1` [compound 52], with less than 5 nM; and `Cc1nn(CC(=O)Nc2ccc(-c3cnccn3)cn2)c(C)c1C1=CCNCC1` [compound 53], with more than 100 nM.
`Cc1nn(CC(=O)Nc2ccc(-c3ccnn3C)cn2)c(C)c1-c1ccnc(C(F)(F)F)c1` [compound 55] gave an IC50 of less than 5 nM.
Molecule `Cc1nn(CC(=O)Nc2ccc(-c3cnccn3)cn2)cc1-c1ccnc(C(F)(F)F)c1` [compound 56] returned an IC50 of less than 5 nM.
On the same count and under the same terms, then `Cc1nn(CC(=O)Nc2ccc(-c3cnccn3)cn2)c(C)c1-c1cc(Cl)ncn1` [compound 57], with 5 to 100 nM; and `Cc1nn(CC(=O)Nc2ccc(-c3cnccn3)cn2)c(C)c1-c1cnn(C2CC2)c1` [compound 58], with 5 to 100 nM.
Consider `Cc1nn(CC(=O)Nc2ccc(-c3ccccc3C#N)cn2)c(C)c1-c1ccnc(C(F)(F)F)c1` [compound 59], for which the IC50 is less than 5 nM.
As for `Cc1nn(CC(=O)Nc2ccc(-c3ccncc3)cn2)c(C)c1-c1ccnc(C(F)(F)F)c1` [compound 60], the half-maximal inhibitory concentration (IC50) is 5 to 100 nM.
Same read-out and setting: then `Cc1nn(CC(=O)Nc2ccc(-c3cnccn3)cn2)c(C)c1-c1ccnc(F)c1` [compound 61], with less than 5 nM.
The molecule `Cc1nn(CC(=O)Nc2ccc(-c3cnccn3)cn2)c(C)c1-c1cnn(C(C)C)c1` [compound 62] yielded an IC50 of 5 to 100 nM.
`Cc1nn(CC(=O)Nc2ccc(C3=CCS(=O)(=O)CC3)cn2)c(C)c1-c1ccnc(C(F)(F)F)c1` [compound 63] returned an IC50 of 5 to 100 nM.
`COc1ccc(-c2c(C)nn(CC(=O)Nc3ccc(-c4cnccn4)cn3)c2C)cn1` [compound 64] showed an IC50 of 5 to 100 nM.
In turn, `Cc1nn(CC(=O)Nc2ccc(-c3ncccn3)cn2)c(C)c1-c1ccnc(C(F)(F)F)c1` [compound 65] yielded an IC50 of less than 5 nM.
For `Cc1nn(CC(=O)Nc2ccc(-c3ccc(C#N)nc3)cn2)c(C)c1-c1ccnc(C(F)(F)F)c1` [compound 66], the IC50 was less than 5 nM.
Same read-out and setting: then `Cc1cn(CC(=O)Nc2ccc(-c3cnccn3)cn2)nc1-c1ccnc(C(F)(F)F)c1` [compound 67], with less than 5 nM.
As to `Cc1nc(-c2ccnc(C(F)(F)F)c2)cn1CC(=O)Nc1ccc(-c2cnccn2)cn1` [compound 68], the IC50 is less than 5 nM.
With `Cc1nn(CC(=O)Nc2ccc(C3CCOCC3)cn2)c(C)c1-c1ccnc(C(F)(F)F)c1` [compound 69], the IC50 fell in the range of 5 to 100 nM.
Molecule `Cc1nn(CC(=O)Nc2ccc(-c3cnccn3)cn2)c(C)c1-c1cn(C)nc1C(F)(F)F` [compound 70] registered an IC50 of 5 to 100 nM.
The molecule `Cc1nn(CC(=O)Nc2ccc(-c3ccnc(C#N)c3)cn2)c(C)c1-c1ccnc(C(F)(F)F)c1` [compound 71] displayed an IC50 of less than 5 nM.
In turn, `Cc1nc(-c2ccnc(C(F)(F)F)c2)c(C)n1CC(=O)Nc1ccc(-c2cnccn2)cn1` [compound 72] registered an IC50 of less than 5 nM.
The same measure, in the same setting: then `Cc1nn(CC(=O)Nc2ncc(-c3cnccn3)cc2F)c(C)c1-c1ccnc(C(F)(F)F)c1` [compound 73], with 5 to 100 nM; and `Cc1cc(-c2cnccn2)cnc1NC(=O)Cn1nc(C)c(-c2ccnc(C(F)(F)F)c2)c1C` [compound 76], with more than 100 nM; and `COc1cc(-c2cnccn2)cnc1NC(=O)Cn1nc(C)c(-c2ccnc(C(F)(F)F)c2)c1C` [compound 77], with 5 to 100 nM.
On the same count and under the same terms, then `Cc1nn(CC(=O)Nc2ccc(-c3cnccn3)cn2)c(C)c1-c1cc(N(C)C)nc(C(F)(F)F)n1` [compound 78], with less than 5 nM; and `Cc1nn(CC(=O)Nc2ccc(-c3cnccn3)cn2)c(C)c1-c1ccnc(N)c1` [compound 79], with 5 to 100 nM.
Same read-out and setting: then `Cc1nn(CC(=O)Nc2ncc(-c3cnccn3)cc2C#N)c(C)c1-c1ccnc(C(F)(F)F)c1` [compound 80], with 5 to 100 nM; and `Cc1nn(C(C)C(=O)Nc2ccc(-c3cnccn3)cn2)c(C)c1C1=CCOCC1` (centres unmarked) [compound 81], with less than 5 nM; and `Cc1nn(CC(=O)Nc2ccc(-c3cnccn3)cn2)c(C)c1C1=CC(C)OC(C)C1` (centres unmarked) [compound 82], with less than 5 nM.
Turning to `Cc1nn(C(=O)C(C)(C)Nc2ccc(-c3cnccn3)cn2)c(C)c1C1=CCCOC1` [compound 83], the IC50 was 5 to 100 nM.
Same read-out and setting: then `Cc1nn(CC(=O)Nc2ccc(-c3cncnc3)cn2)c(C)c1C1=CC(C)OC(C)C1` (centres unmarked) [compound 84], with less than 5 nM; and `Cc1nn(CC(=O)Nc2ccc(-c3ncccn3)cn2)c(C)c1C1=CC(C)OC(C)C1` (centres unmarked) [compound 85], with 5 to 100 nM; and `Cc1cc(-c2nc(C)n(CC(=O)Nc3ccc(-c4cnccn4)cn3)c2C)ccn1` [compound 86], with less than 5 nM.

Staying with this assay, now noted: luciferase signal reduced to 50% of DMSO control.
Take `O=C(Cc1cc(-c2ccnc(C(F)(F)F)c2)cs1)Nc1ccc(-c2cnccn2)cn1` [compound 23]: the IC50 was 0.34 nM.
`Cc1nn(CC(=O)Nc2ccc(-c3cncnc3)cn2)c(C)c1-c1ccnc(C(F)(F)F)c1` [compound 35] yielded an IC50 of 0.34 nM.
